For data set [1], the system named is adrenal cortex. As to the kind of experiment: Adrenal damage. Conditions: for Adrenal damage: feeding; for Pathological findings in adrenals: without hydrocarbons.
Data set [2] relates to adrenal cortex. Conditions: cited from earlier work; for Protection of adrenal against 7,12-DMBA: single feeding.
For data set [3], the system named is adrenal cortex. As to the kind of experiment: Induced protection of adrenal against 7,12-DMBA. It counts as in vivo, rat. Conditions: for Protection of adrenal after repeated doses: 15 mg fed daily for 5 days before 7,12-DMBA.
The test system of data set [4] is adrenal cortex. Conditions: far larger doses than of 7,12-DMBA required; cited from earlier work.
Data set [5] concerns menadione reductase (EC 1.6.5.2). In words: Induction of menadione reductase in tissues. Type of data set: in vivo, rat. Conditions: for Induction of menadione reductase in liver: single feeding, 24 hours.
The subject of data set [6] is deoxyribonucleic acid of adrenal. It counts as in vivo, rat. Conditions: Table VII; ethionine 25 mg i.p. at -24 hrs alone.
The mark [7] stands for this setting: polycyclic aromatic hydrocarbons.

Where two headings read alike, the source gives them in different places.

As to `Cc1cccc2ccc3cc4ccccc4c(C)c3c12` [1,12-DMBA], the Adrenal damage entry in the data set with adrenal cortex [1] (30 mg) was “adrenal damage did not occur”.

Regarding `c1ccc2cc3ccccc3cc2c1` [anthracene], in the data set with adrenal cortex [2] (setting [7]), the “Protection of adrenal against 7,12-DMBA” value is recorded as “protection of this sort was afforded”.

Turning to `CSCC[C@H](N)C(=O)O` [methionine], the “Pathological findings in adrenals” value with adrenal cortex [1] (injection of 50 mg) is reported as “No pathological findings”. Further, the “Influence on aromatic protection against 7,12-DMBA” value with adrenal cortex [3] (methionine 50 mg as sole amino acid 1 hour before or 1 hour after 3-MC 2 mg) is “no influence on aromatic protection”.

Regarding `CCC1(CC)C(=O)NC(=O)NC1=O` [barbital], the “Protection of adrenal after repeated doses” value with adrenal cortex [3] is given as “did not induce pro- tection”.

Consider `Clc1ccc(C(c2ccccc2Cl)C(Cl)Cl)cc1` (stereo not drawn) [o,p'-DDD, 2,2-bis(2-chlorophenyl,4-chlorophenyl)-l, 1-dichloroethane], for which, in the data set with adrenal cortex [4], the “Adrenal necrosis (character)” value is “focal and patchy”.

With `CCC1(C2=CCCCC2)C(=O)NC(=O)NC1=O` [cyclobarbital, 5-(1-cycloohexanyl)-5-ethylbarbituric acid], the “Protection of adrenal after repeated doses” value in the data set with adrenal cortex [3] is given as “did not induce pro- tection”.

Take `Cc1cccc2cc3c(cc12)c(C)cc1ccccc13` [6,8-Dimethylbenz[a]anthracene]: the Adrenal damage result in the data set on adrenal cortex [1] (30 mg) is “adrenal damage did not occur”.

Consider `c1cc2ccc3cccc4ccc(c1)c2c34` [Pyrene], for which, in data set [5], the “Induction of menadione reductase in liver” value is on record as “failed to induce this enzyme”.

Regarding `CCSCC[C@H](N)C(=O)O` [ethionine], the “Pathological findings in adrenals” value in the data set on adrenal cortex [1] (injection of 25 to 75 mg) is on record as “No pathological findings”. Besides, the “Elevation of menadione reductase in liver at 12 hours vs rats without ethionine” value in data set [5] (3-MC 2.5 mg i.v. plus ethionine 25 mg i.p.) was “significantly lower”. Besides, in data set [5] (3-MC 2.5 mg i.v. plus ethionine 25 mg i.p. just after, Fig. 4), the “Time elevation of menadione reductase in liver first detected” value came to 8 h. Besides, the “Tritium content of adrenal” value in data set [6] is 0.122 ~clgm. Besides, the “Tritium content of adrenal, per cent of controls” value in data set [6] turned out to be 92 per cent. Besides, the Adrenals at necropsy entry with adrenal cortex [3] (3 doses of ethionine 25 mg at +1 minute, +4 hours, +8 hours after 3-MC 10 mg, 7,12-DMBA 5 mg) is “eliminated the protective effect of 3-MC”; in the data set with adrenal cortex [3] (ethionine 25 mg 4 or 8 hours after 3-MC 2 mg, 7,12-DMBA 5 mg 24 hours later), “yel- low adrenals”; in the data set on adrenal cortex [3] (single doses of ethionine 25 mg or 50 mg, 1 minute to 1 hour after 3-MC 10 mg, 7,12-DMBA 5 mg) it was “yellow adrenals”. Also, the “Effect on 7,12-DMBA-produced adrenal apoplexy” value in the data set on adrenal cortex [3] (ethionine 25 mg or 50 mg 0.5 hours before 7,12-DMBA 5 mg, no protector) is given as “adrenal apoplexy was found at necropsy in all of the rats”.

For `CC(C)(O)C(Cl)(Cl)Cl` [chloretone, 1,1,1-tricbloro-2-methyl-2-propanol], in the data set with adrenal cortex [3] (15 mg fed daily for 5 days, group of 20 rats), the “Rats with protection of adrenals” value is 7.

On to `CC12OOC(C)(c3ccccc31)c1c2ccc2ccccc12` (stereo not drawn) [transannular peroxide of 7,12-DMBA], for which the Adrenal damage result in the data set on adrenal cortex [1] (50 mg) is recorded as “did not cause injury to the adrenals”. Further, in the data set on adrenal cortex [3] (feeding 10 mg), the Adrenal protection result was “complete adre- nal protection”. Also, the “Animals with protection of adrenals” value with adrenal cortex [3] (single feeding of 2 mg, group of 5 rats) is 3.

Turning to `c1ccc2c(c1)ccc1c3ccccc3ccc21` [Chrysene], the “Induction of menadione reductase in liver” value in data set [5] is recorded as “induced a considerable in- crease”.

Turning to `CC(C)(C(=O)c1cccnc1)c1cccnc1` [2-methyl-I, 2-b/s(3-pyr-idyl)-1-propanone], the “Prevention of adrenal damage from 7,12-DMBA” value in the data set on adrenal cortex [2] (preliminary treatment of rats) was “prevented adrenal damage”.

Consider `c1ccc2c(c1)cc1ccc3cccc4ccc2c1c34` [Benzo[a]pyrene, benzo[a]pyrene], for which the “Protection of adrenal against 7,12-DMBA” value in the data set with adrenal cortex [2] (setting [7]) is “protection of this sort was afforded”. Also, the “Induction of menadione reductase in liver” value in data set [5] is on record as “induced synthesis of the enzyme”.

`Nc1cc2c3ccccc3ccc2c2ccccc12` [6-Aminochrysene]: in the data set on adrenal cortex [2] (aromatic amines), the “Protection of adrenal against 7,12-DMBA” value is on record as “protection of this sort was afforded”.

With `Cc1c2ccccc2cc2c1cc(F)c1ccccc12` [5-Fluoro-7-methyl BaA], the Adrenals with hemorrhage in the data set with adrenal cortex [3] (Table III, dose 1 mg fed once day -1, 7,12-DMBA 5 mg i.v. day 0, adrenals day 3) is listed as 0/6.

In the case of `c1ccc2cc3c(ccc4ccccc43)cc2c1` [Benz[a]anthracene, benz[a]anthracene], the “Protection of adrenal against 7,12-DMBA” value in the data set with adrenal cortex [2] (setting [7]) is listed as “protection of this sort was afforded”.

With `Nc1ccc2ccccc2c1` [2-naphthylamine], the “Protection of adrenal against 7,12-DMBA” value in the data set with adrenal cortex [2] (aromatic amines) is recorded as “protection of this sort was afforded”.

In the case of `c1ccc2c(c1)ccc1ccccc12` [phenanthrene], in the data set on adrenal cortex [2] (setting [7]), the “Protection of adrenal against 7,12-DMBA” value is “protection of this sort was afforded”.

As for `Cc1ccc2cc3c(ccc4cc(C)ccc43)cc2c1` [3,9-Dimethylbenz[alanthracene], the Adrenal damage result in the data set on adrenal cortex [1] (30 mg) was “adrenal damage did not occur”.

On to `Nc1ccc2c(c1)Cc1ccccc1-2` [2-aminofluorene], for which the “Protection of adrenal against 7,12-DMBA” value in the data set on adrenal cortex [2] (aromatic amines) is given as “protection of this sort was afforded”.
